Several values for one entry are separate records, joined by “and”; a condition that tells them apart may be missing. Equal values may be shown once.
Assay: TEAC (Trolox equivalent antioxidant activity) ABTS decolorization assay
Settings: for antioxidant activity as compared to the Vitamin E standard compound (Trolox): Table 1, statement in words; for TEAC (Ratio % Inhibition): ratio of % inhibition of antioxidant compound / % inhibition of Trolox; for TEAC (Slope): relative to Trolox as standard, slope of % inhibition vs concentration
Method: Tests were conducted to evaluate the antioxidant and carbonyl trapping properties of therapeutic compositions according to various embodiments of the present invention. A Trolox equivalent antioxidant activity (TEAC) test was conducted to assess the antioxidant properties as described below in greater detail.
The TEAC antioxidant activity was measured by the ABTS [2,2′-Azinobis-(3-ethylbenzothiazoline-6-sulphonic acid)] decolorization assay. In this method, a stable radical (ABTS radical cation) is formed, and the adsorption maxima is determined. See, for example, R. Ree, N. Pellegrini, A. Proteggente, A. Pannala, M. Yang and C. Rice-Evans, Antioxidant activity applying an improved ABTS radical cation decolorization assay, Free Rad. Biol. & Med., 26 (9/10), 1231-1237 (1999). The addition of antioxidant to the pre-formed radical cation reduces it to an extent and on a time-scale depending on the antioxidant activity, the concentration of the antioxidant and the duration of the reaction. Thus, the extent of reduction (decolorization) as percentage inhibition of the ABTS radical cation is determined as a function of concentration and time and calculated relative to the reactivity of Trolox as a standard under the same conditions. The TEAC value is calculated by the ratio of % of Inhibition of antioxidant compound/% Inhibition of Trolox.

Compound	antioxidant activity as compared to the Vitamin E standard compound (Trolox)	TEAC (Ratio % Inhibition)	TEAC (Slope)
Cc1c(C)c2c(c(C)c1O)CCC(C)(CCN1CCN(C(=O)[C@@H](N)CS)CC1)O2 (some centres unmarked) [VE-CYS-1, N-[2-(6-Hydroxy-tetramethylchroman-2-yl)ethyl]-N′-(cysteinyl)-piperazine]	enhanced antioxidant activity	1.4-1.5	1.4(r2 = 0.9997)
Cc1c(C)c2c(c(C)c1O)CCC(C)(CCON)O2 (centres unmarked) [VE-ONH2-1, 2-(6-Hydroxy-2,5,7,8-tetramethylchroman-2-yl)-1-(aminooxy)ethane]		0.9-1.0 and 0.5-0.8	0.9(r2 = 0.9948) and 0.8(r2 = 0.9997)
N-[2-(6-Hydroxy-tetramethylchroman-2-yl)ethyl]-N′-(penicillamyl)-piperazine [VE-PEN-1]	enhanced antioxidant activity	1.6-2.1	1.3(r2 = 0.9996)
